Test results taken from patent publication US20260109732A1, “LIPID AMINES” (ModernaTX, Inc., priority 2021, published 2026).
Counter-ions that a name gives are not always drawn.

Columns and labels:
HeLa cells [1] = assay: CFTR Protein Expression Assay in HeLa Cells; assay type: cell-based, Human; settings: LNPs encapsulating CFTR mRNA, N=4 wells; 5 h serum-free then 24 h; immunofluorescence vs PBS control
Experimental: (§1) For HeLa studies evaluating CFTR protein expression, the intermediate nanoparticle formulation (1 mL, 0.415 mg mRNA) is mixed with a buffer containing 20 mM TRIS (pH 7.5), 0.9 mg/mL PEG-DMG-2K and lipid amine SA50 (647.1 nmol) at a volumetric ratio of 6:1 of nanoparticle:buffer. The resulting nanoparticle suspension undergoes concentration using a centrifugal filtration device (100 kDa molecular weight cut-off) and is diluted in running buffer (20 mM TRIS, 14.3 mM sodium acetate, and 32 g/L sucrose, pH 7.5) with a 300 mM NaCl solution to a final buffer matrix containing 70 mM NaCl.
(§2) Lipid nanoparticle compositions were prepared in a manner analogous to that in example 2. To evaluate LNP cellular uptake and protein expression In Vitro, HeLa cells from ATCC.org (ATCC CCL-2) are used. The cells are cultured in complete Minimum Essential Medium (MVEM) and are plated in 96 well Cell Carrier Ultra plate with PDL coated surface (PerkinElmer) prior to running an experiment.
Buffer control (PBS) and LNPs encapsulating cystic fibrosis transmembrane conductance regulator (CFTR) mRNA were dosed with MEM media in the absence of serum (N=4 replicate wells). LNP transfected cells were incubated for 5 h, followed by media removal and supplementation with complete MEM media. Cells were further incubated in complete MEM media overnight (24 h).
Following 24 hr incubation, the cells were fixed with PFA and processed for immunofluorescence (IF) using an anti-CFTR rabbit monoclonal antibody. Briefly, the cells were permeabilized with 0.5% TX-100 for 10 min, blocked with 3% bovine serum albumin (BSA)+PBST for 1 hr at room temperature, and incubated with primary anti-CFTR monoclonal antibody overnight at 4° C. Following primary antibody incubation, the cells were incubated with Alexa 488 conjugated secondary antibody for 30 mi and stained with DAPI and HCS CellMask Blue stain. Between different incubation steps the cells were either washed with PBS or PBST. Cells were imaged using Opera Phoenix spinning disk confocal microscope (PerkinElmer), and CFTR protein expression was detected using the 488 nm channel. The image analysis was performed in Harmony 4.9, with main analysis output being CFTR intensity per cell. The results shown in Table 3b show fold-change in CFTR signal intensity per cell compared to buffer (PBS) control (NA=not available).

[2] = Encapsulation of mRNA nanoparticles with lipid amines using Ribogreen assay; assay type: physicochemical
Experimental: (§3) Lipids are dissolved in ethanol at a concentration of 24 mg/mL and molar ratios of 49.0:11.2:39.3:0.5 (IL1:DSPC:cholesterol:PEG-DMG-2K) and mixed with the acidification buffer (45 mM acetate buffer at pH 4). The lipid solution and acidification buffer are mixed using a multi-inlet vortex mixer at a 3:7 volumetric ratio of lipid:buffer for mixer 1 and mixer 2 and a 1:3 volumetric ratio of lipid:buffer (25% ethanol) for mixer 3. After a 5 second residence time, the resulting nanoparticles are mixed with 55 mM sodium acetate at pH 5.6 at a volumetric ratio of 5:7 of nanoparticle:buffer. See Table 2a for mixing parameters. The resulting dilute nanoparticles are then buffer exchanged and concentrated using tangential flow filtration (TFF) into a final buffer containing 5 mM sodium acetate pH 5.0. Then a 70% sucrose solution in 5 mM acetate buffer at pH 5 is subsequently added.
(§4) The resulting nanoparticles at a lipid concentration of 7.33 mg/mL in 5 mM acetate (pH 5) and 75 g/L sucrose are mixed with mRNA (luciferease or CFTR) at a concentration of 0.625 mg/mL in 42.5 mM sodium acetate pH 5.0, with N:P of 4.93. The nanoparticle solution and nanoparticles are mixed using a multi-inlet vortex mixer at a 3:2 volumetric ratio of nanoparticle:mRNA. Once loaded with mRNA, these intermediate nanoparticles undergo a 300 second residence time prior addition of neutralization buffer containing 120 mM TRIS pH 8.12 at a volumetric ratio of 5:1 of nanoparticle:buffer.
(§5) For HeLa studies evaluating luciferase protein expression, PEG-DMG-2K dissolved in a 20 mM TRIS buffer (pH 7.5) is added to the neutralized intermediate nanoparticle solution at a ratio of 1:6, bringing the solution to the final molar ratios of IL1:DSPC:cholesterol:PEG-DMG-2K of 48.5:11.1:38.9:1.5%. This nanoparticle formulation is then modified with lipid amines. In a typical example, nanoparticle formulation at a concentration of 0.18 mg/mL mRNA and a 0.56 mL volume is modified with lipid amine SA50 (467.2 nmol) prepared in buffer containing 20 mM TRIS, 14.3 mM sodium acetate, 32 g/L sucrose and 140 mM NaCl-pH 7.5 at a volumetric ratio of 1:1 of nanoparticle:buffer.
as §1
(§6) Both resulting nanoparticle suspensions are filtered through a 0.8/0.2 μm capsule filter and filled into glass vials at an mRNA strength of about 0.1-1 mg/mLBliophysical data (Diameter and PDI from DLS measurements and Encapsualtion using Ribogreen assay) for both luciferase and CFTR mRNA nanoparticles with lipid amines is shown in Tables 2c and d, respectively.

HeLa cells [3] = assay: Luciferase Protein Expression Assay in HeLa Cells; assay type: cell-based, Human; settings: LNPs encapsulating Luciferase mRNA, 25 ng per well, N=4 wells; 5 h serum-free then 24 h; ONE-Glo
Experimental: as §5, §2
Cells were transfected with buffer control (PBS) or LNPs encapsulating Luciferase mRNA (25 ng per well; N=4 replicate wells) in serum-free MEM media. LNP transfected cells were incubated for 5 h, followed by media removal and supplementation with complete MEM media. Cells were further incubated in complete MEM media overnight (24 h). Following the 24 hr incubation, luciferase protein expression was measured using the ONE-Glo™ Luciferase Assay (Promega). Cells were lysed using 1× Passive Lysis Buffer (Cat. #E194A) for 10 min in a microplate mixer at room temperature. Luciferase in the supernatant was measured by adding Luciferase Assay Reagent (Cat. #E151A) containing luciferin. Bioluminescence was then immediately measured on a Synergy H1 plate reader (BioTek). The results shown in Table 3a show the Average Relative Light Units (RLU) of each sample tested.

[4] = Diameter and PDI from DLS measurements of mRNA nanoparticles with lipid amines; assay type: physicochemical
Experimental: as §3, §4, §5, §1, §6

[5] = CFTR mRNA nanoparticle with lipid amine
[6] = Luciferase mRNA nanoparticle modified with lipid amine

Compound | Average fold-change in CFTR signal intensity per cell compared to buffer control ± standard deviation (HeLa cells [1]) [fold-change] | % Encapsulation (Ribogreen) [2, 5] [%] | % Encapsulation (Ribogreen) [2, 6] [%] | Average Relative Light Units ± Standard Deviation (HeLa cells [3]) [Relative Light Units] | Diameter (nm) [4, 5] [nm] | PDI [4, 5] | Diameter (nm) [4, 6] [nm] | PDI [4, 6]
CC(C)CCC[C@@H](C)[C@H]1CC[C@H]2[C@@H]3CC=C4C[C@@H](OC(=O)CC(=O)N(CCCN)CCCCNCCCN)CC[C@]4(C)[C@H]3CC[C@]12C.Cl.Cl.Cl [SA59, (3S,8S,9S,10R,13R,14S,17R)-10,13-Dimethyl-17-((R)-6-methylheptan-2-yl)-2,3,4,7,8,9,10,11,12,13,14,15,16,17-tetradecahydro-1H-cyclopenta[a]phenanthren-3-yl 3-((3-aminopropyl)(4-((3-aminopropyl)amino)butyl)amino)-3-oxopropanoate trihydrochloride] | 5.6 ± 0.5 | 99.6 | 99.7 | 17590.1 ± 6267.4 | 76.9 | 0.15 | 74 | 0.15
CC(C)CCC[C@@H](C)[C@H]1CC[C@H]2[C@@H]3CC=C4C[C@@H](OC(=O)N(CCCN)CCCCCCCCN)CC[C@]4(C)[C@H]3CC[C@]12C [SA60, (3S,8S,9S,10R,13R,14S,17R)-10,13-Dimethyl-17-((R)-6-methylheptan-2-yl)-2,3,4,7,8,9,10,11,12,13,14,15,16,17-tetradecahydro-1H-cyclopenta[a]phenanthren-3-yl (8-aminooctyl)(3-aminopropyl)carbamate dihydrochloride] | 10.7 ± 0.1 | 99.5 | 98.8 | 30508.5 ± 6869.7 | 70.9 | 0.08 | 74 | 0.13
CC(C)CCC[C@@H](C)[C@H]1CC[C@H]2[C@@H]3CC=C4C[C@@H](OC(=O)N(CCCCNC(C)CCN)C(C)CCN)CC[C@]4(C)[C@H]3CC[C@]12C (stereo partly drawn) [SA74, (3S,8S,9S,10R,13R,14S,17R)-10,13-dimethyl-17-((R)-6-methylheptan-2-yl)-2,3,4,7,8,9,10,11,12,13,14,15,16,17-tetradecahydro-1H-cyclopenta[a]phenanthren-3-yl (4-aminobutan-2-yl)(4-((4-aminobutan-2-yl)amino)butyl)carbamate trihydrochloride] | – | – | 99.1 | 23899.2 ± 6943.7 | – | – | 75 | 0.19
CC[C@H](CC[C@@H](C)[C@H]1CC[C@H]2[C@@H]3CC=C4C[C@@H](OC(=O)N(CCCCNC(C)CCN)C(C)CCN)CC[C@]4(C)[C@H]3CC[C@]12C)C(C)C (stereo partly drawn) [SA113, (3S,8S,9S,10R,13R,14S,17R)-17-((2R,5R)-5-ethyl-6-methylheptan-2-yl)-10,13-dimethyl-2,3,4,7,8,9,10,11,12,13,14,15,16,17-tetradecahydro-1H-cyclopenta[a]phenanthren-3-yl (4-aminobutan-2-yl)(4-((4-aminobutan-2-yl)amino)butyl)carbamate trihydrochloride] | – | – | 99.7 | 20665.4 ± 7510.5 | – | – | 77 | 0.23
CC[C@H](CC[C@@H](C)[C@H]1CC[C@H]2[C@@H]3CC=C4C[C@@H](OC(=O)N(CCCCNCC(F)(F)CN)CC(F)(F)CN)CC[C@]4(C)[C@H]3CC[C@]12C)C(C)C [SA116, (3S,8S,9S,10R,13R,14S,17R)-17-((2R,5R)-5-ethyl-6-methylheptan-2-yl)-10,13-dimethyl-2,3,4,7,8,9,10,11,12,13,14,15,16,17-tetradecahydro-1H-cyclopenta[a]phenanthren-3-yl (3-amino-2,2-difluoropropyl)(4-((3-amino-2,2-difluoropropyl)amino)butyl)carbamate trihydrochloride] | – | – | 97.6 | 110.9 ± 26.9 | – | – | 73 | 0.20
CC(C)CCC[C@@H](C)[C@H]1CC[C@H]2[C@@H]3CC=C4C[C@@H](OC(=O)CN(CCCCCCCCN)C(=O)[C@@H](N)CCCCN)CC[C@]4(C)[C@H]3CC[C@]12C.Cl.Cl.Cl [SA130, (3S,8S,9S,10R,13R,14S,17R)-10,13-dimethyl-17-((R)-6-methylheptan-2-yl)-2,3,4,7,8,9,10,11,12,13,14,15,16,17-tetradecahydro-1H-cyclopenta[a]phenanthren-3-yl N-(L-lysyl)-N-(8-aminooctyl)glycinate trihydrochloride] | 1.0 ± 0 | 95.7 | – | – | 85.7 | 0.18 | – | –
CC[C@H](CC[C@@H](C)[C@H]1CC[C@H]2[C@@H]3CC=C4C[C@@H](OC(=O)N(CCCCNC)CCCNC)CC[C@]4(C)[C@H]3CC[C@]12C)C(C)C [SA180, (3S,8S,9S,10R,13R,14S,17R)-17-((2R,5R)-5-ethyl-6-methylheptan-2-yl)-10,13-dimethyl-2,3,4,7,8,9,10,11,12,13,14,15,16,17-tetradecahydro-1H-cyclopenta[a]phenanthren-3-yl (4-(methylamino)butyl)(3-(methylamino)propyl)carbamate dihydrochloride] | – | – | 98.7 | 35476 ± 6770.8 | – | – | 76 | 0.17
